Results from US12655142B2 (Merck Patent GmbH, priority 2019, dated 2026).

Assays:
[1] = biological target: T1, c-Kit(V654A) (Homo sapiens, UniProt P10721, V654A); experiment: c-Kit(V654A) assay (33P-ATP filter binding kinase assay); format: biochemical; conditions: recombinant human c-Kit aa 544-end V654A, ATP 200 μM
T1 construct: recombinant human c-Kit, amino acids 544-end containing the V654A mutation; GST (N)
In short: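 Radiometric filter-binding read-out: substrate 33P incorporation counted by scintillation after P30 filtermat washes in 75 mM phosphoric acid and methanol. Enzyme: N-GST recombinant human c-Kit aa 544-end carrying V654A.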

[2] = biological target: T2, GIST430/654 cell line expressing mutated constitutively active cKIT receptor tyrosine kinase (Δ560-576 deletion and V654A point mutation) (Homo sapiens, UniProt P10721, DEL560-576/V654A); experiment: Cellular cKIT autophosphorylation (phospho-Y307-cKIT, Luminex bead assay) in GIST430/654 cells; format: cell-based; conditions: compounds 45 min, read-out: GIST 430/654 IC50
T2 construct: endogenous in cells; host or cells: GIST430/654 cells
In short: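 Phospho-Y307 cKIT in lysates was measured on a Luminex bead assay, with total-cKIT capture overnight at 4 °C and phosphospecific plus PE secondary detection. Cells had 45 min exposure to a compound dilution series the day after plating: GIST430 (Δ560-576) or GIST430/654 (Δ560-576/V654A, grown with 100 nM imatinib). IC50 values are relative to 0.3% DMSO-treated cells.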

[3] = Determination of Efflux-Ratio (ER) in Caco-2 cells; conditions: human, Caco-2, pH 7.4

T2 sequence (P10721 with tags, fused parts or gaps DEL560-576/V654A): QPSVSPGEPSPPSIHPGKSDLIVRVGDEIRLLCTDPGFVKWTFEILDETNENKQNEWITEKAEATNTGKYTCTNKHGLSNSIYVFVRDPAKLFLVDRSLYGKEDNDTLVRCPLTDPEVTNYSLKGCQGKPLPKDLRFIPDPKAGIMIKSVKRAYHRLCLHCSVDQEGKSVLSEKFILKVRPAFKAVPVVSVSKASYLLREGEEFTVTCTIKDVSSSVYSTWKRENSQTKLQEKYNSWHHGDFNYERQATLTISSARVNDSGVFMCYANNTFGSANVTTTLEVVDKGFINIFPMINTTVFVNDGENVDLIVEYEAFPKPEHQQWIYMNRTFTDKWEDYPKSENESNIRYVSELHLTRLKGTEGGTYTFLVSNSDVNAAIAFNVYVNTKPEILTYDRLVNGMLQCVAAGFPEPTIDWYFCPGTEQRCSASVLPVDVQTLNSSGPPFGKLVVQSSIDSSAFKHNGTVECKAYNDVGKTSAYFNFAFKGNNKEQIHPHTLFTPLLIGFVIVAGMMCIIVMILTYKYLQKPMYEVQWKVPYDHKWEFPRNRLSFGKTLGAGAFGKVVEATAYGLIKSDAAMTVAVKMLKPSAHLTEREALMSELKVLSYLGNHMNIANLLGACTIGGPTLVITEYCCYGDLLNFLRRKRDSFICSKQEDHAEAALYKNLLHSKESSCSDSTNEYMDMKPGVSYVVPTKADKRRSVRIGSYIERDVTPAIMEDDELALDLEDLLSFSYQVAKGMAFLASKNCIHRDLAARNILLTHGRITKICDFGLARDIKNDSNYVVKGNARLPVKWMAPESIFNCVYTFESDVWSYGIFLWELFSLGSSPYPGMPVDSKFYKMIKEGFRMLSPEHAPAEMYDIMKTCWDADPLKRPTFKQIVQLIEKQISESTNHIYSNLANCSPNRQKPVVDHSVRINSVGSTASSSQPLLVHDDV
T1 sequence (P10721 544-976 V654A): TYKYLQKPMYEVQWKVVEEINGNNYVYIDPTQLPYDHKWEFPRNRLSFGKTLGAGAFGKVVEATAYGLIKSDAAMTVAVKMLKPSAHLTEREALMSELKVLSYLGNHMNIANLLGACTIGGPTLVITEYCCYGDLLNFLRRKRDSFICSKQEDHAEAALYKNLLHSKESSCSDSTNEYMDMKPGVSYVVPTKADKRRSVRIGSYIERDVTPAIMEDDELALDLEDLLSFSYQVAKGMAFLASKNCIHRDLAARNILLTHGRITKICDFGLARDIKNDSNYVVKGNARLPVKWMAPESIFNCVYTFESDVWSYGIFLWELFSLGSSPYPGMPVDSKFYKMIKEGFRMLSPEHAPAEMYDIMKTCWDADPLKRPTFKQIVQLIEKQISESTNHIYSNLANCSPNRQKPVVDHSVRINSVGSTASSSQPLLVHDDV

Row | Structure (SMILES) | IC50 [1] [nM] | IC50 [2] [nM] | efflux ratio at 2 h, 1 μM [3]
1 | CN(CCOc1ccn2c(-c3cc(NCc4ccc(-c5cnn(C)c5)cc4)ncn3)cnc2c1)CC(F)(F)F [A208, [4-(1-methyl-1H-pyrazol-4-yl)-benzyl]-[6-(7-{2-[methyl-(2,2,2-trifluoro-ethyl)-amino]-ethoxy}-imidazo[1,2-a]pyridin-3-yl)-pyrimidin-4-yl]-amine] | 38 | 230 | < 15
2 | Cc1noc(C2CN(CCOc3ccn4c(-c5cc(NCc6ccc(-c7cnn(C)c7)cc6)ncn5)cnc4c3)C2)n1 [A213, [6-(7-{2-[3-(3-methyl-[1,2,4]oxadiazol-5-yl)-azetidin-1-yl]-ethoxy}-imidazo[1,2-a]pyridin-3-yl)-pyrimidin-4-yl]-[4-(1-methyl-1H-pyrazol-4-yl)-benzyl]-amine] | 16 | 180 | < 15
3 | Cn1cc(-c2ccc(CNc3cc(-c4cnc5cc(OCCN6CCOC(F)(F)C6)ccn45)ncn3)cc2)cn1 [A214, (6-{7-[2-(2,2-difluoro-morpholin-4-yl)-ethoxy]-imidazo[1,2-a]pyridin-3-yl}-pyrimidin-4-yl)-[4-(1-methyl-1H-pyrazol-4-yl)-benzyl]-amine] | 21 | 180 | < 15
4 | Cn1cc(-c2ccc(CNc3cc(-c4cnc5cc(OCCN6CCn7cccc7C6)ccn45)ncn3)cc2)cn1 [A218, (6-{7-[2-(3,4-dihydro-1H-pyrrolo[1,2-a]pyrazin-2-yl)-ethoxy]-imidazo[1,2-a]pyridin-3-yl}-pyrimidin-4-yl)-[4-(1-methyl-1H-pyrazol-4-yl)-benzyl]-amine] | 11 | 200 | < 15
5 | CN1CCN(CCOc2ccn3c(-c4cc(NCc5ccc(-c6cnn(C)c6)cc5)ncn4)cnc3c2)CCC1=O [A219, 4-methyl-1-[2-(3-{6-[4-(1-methyl-1H-pyrazol-4-yl)-benzylamino]-pyrimidin-4-yl}-imidazo[1,2-a]pyridin-7-yloxy)-ethyl]-[1,4]diazepan-5-one] | 11 | 100 | 15 to 50
6 | COC1(C)CCN(CCOc2ccn3c(-c4cc(NCc5ccc(-c6cnn(C)c6)cc5)ncn4)cnc3c2)CC1 [A220, (6-{7-[2-(4-methoxy-4-methyl-piperidin-1-yl)-ethoxy]-imidazo[1,2-a]pyridin-3-yl}-pyrimidin-4-yl)-[4-(1-methyl-1H-pyrazol-4-yl)-benzyl]-amine] | 11 | 140 | < 15
7 | Cc1nnc2n1CCN(CCOc1ccn3c(-c4cc(NCc5ccc(-c6cnn(C)c6)cc5)ncn4)cnc3c1)C2 [A221, (6-{7-[2-(3-methyl-5,6-dihydro-8H-[1,2,4]triazolo[4,3-a]pyrazin-7-yl)-ethoxy]-imidazo[1,2-a]pyridin-3-yl}-pyrimidin-4-yl)-[4-(1-methyl-1H-pyrazol-4-yl)-benzyl]-amine] | 14 | 400 | > 50
8 | Cn1cc(-c2ccc(CNc3cc(-c4cnc5cc(OCCN6CCC(C)(C#N)CC6)ccn45)ncn3)cc2)cn1 [A222, 4-methyl-1-[2-(3-{6-[4-(1-methyl-1H-pyrazol-4-yl)-benzylamino]-pyrimidin-4-yl}-imidazo[1,2-a]pyridin-7-yloxy)-ethyl]-piperidine-4-carbonitrile] | 17 | 93 | < 15
9 | Cn1cc(-c2ccc(CNc3cc(-c4cnc5cc(OCCC(C)(C)N)ccn45)ncn3)cc2)cn1 [A223, {6-[7-(3-amino-3-methyl-butoxy)-imidazo[1,2-a]pyridin-3-yl]-pyrimidin-4-yl}-[4-(1-methyl-1H-pyrazol-4-yl)-benzyl]-amine] | 11 | 190 | > 50
10 | Cn1cc(-c2ccc(CNc3cc(-c4cnc5cc(N6CCN(C7COC7)CC6)ccn45)ncn3)cc2)cn1 [A230, [4-(1-methyl-1H-pyrazol-4-yl)-benzyl]-{6-[7-(4-oxetan-3-yl-piperazin-1-yl)-imidazo[1,2-a]pyridin-3-yl]-pyrimidin-4-yl}-amine] | 24 | 63 | < 15
11 | Cn1ncc(-c2ccc(CNc3cc(-c4cnc5cc(OCCCS(C)(=O)=O)ccn45)ncn3)cc2)n1 [A231, {6-[7-(3-methanesulfonyl-propoxy)-imidazo[1,2-a]pyridin-3-yl]-pyrimidin-4-yl}-[4-(2-methyl-2H-[1,2,3]triazol-4-yl)-benzyl]-amine] | 15 | 250 | 15 to 50

The next compounds have a lower IC50 [1] than those just listed; values first:

Row | IC50 [1] [nM] | IC50 [2] [nM] | efflux ratio at 2 h, 1 μM [3] | Structure (SMILES)
12 | 10 | 85 | < 15 | Cn1cc(-c2ccc(CNc3cc(-c4cnc5cc(OCCN6CCO[C@@H]7COCC[C@@H]76)ccn45)ncn3)cc2)cn1 [A211, (6-{7-[(4aS,8aS)-2-(hexahydro-pyrano[3,4-b][1,4]oxazin-1-yl)-ethoxy]-imidazo[1,2-a]pyridin-3-yl}-pyrimidin-4-yl)-[4-(1-methyl-1H-pyrazol-4-yl)-benzyl]-amine]
13 | 10 | 120 | > 50 | Cn1cc(-c2ccc(CNc3cc(-c4cnc5cc(OCCN6CC(S(C)(=O)=O)C6)ccn45)ncn3)cc2)cn1 [A215, (6-{7-[2-(3-methanesulfonyl-azetidin-1-yl)-ethoxy]-imidazo[1,2-a]pyridin-3-yl}-pyrimidin-4-yl)-[4-(1-methyl-1H-pyrazol-4-yl)-benzyl]-amine]
14 | 8.2 | 130 | < 15 | Cn1cc(-c2ccc(CNc3cc(-c4cnc5cc(OCCN6CCn7nccc7C6)ccn45)ncn3)cc2)cn1 [A216, (6-{7-[2-(6,7-dihydro-4H-pyrazolo[1,5-a]pyrazin-5-yl)-ethoxy]-imidazo[1,2-a]pyridin-3-yl}-pyrimidin-4-yl)-[4-(1-methyl-1H-pyrazol-4-yl)-benzyl]-amine]
15 | 6.5 | 99 | 15 to 50 | Cn1cc(-c2ccc(CNc3cc(-c4cnc5cc(OCCS(C)(=O)=O)ccn45)ncn3)cc2)cn1 [A224, {6-[7-(2-methanesulfonyl-ethoxy)-imidazo[1,2-a]pyridin-3-yl]-pyrimidin-4-yl}-[4-(1-methyl-1H-pyrazol-4-yl)-benzyl]-amine]
16 | 4.2 | 51 | < 15 | Cn1cc(-c2ccc(CNc3cc(-c4cnc5cc(-c6cnn(C)c6)ccn45)ncn3)cc2)cn1 [A226, 6-[7-(1-methyl-1H-pyrazol-4-yl)imidazo[1,2-a]pyridin-3-yl]-N-{[4-(1-methyl-1H-pyrazol-4-yl)phenyl]methyl}pyrimidin-4-amine]
17 | 8.7 | 130 | > 50 | Cn1cc(-c2ccc(CNc3cc(-c4cnc5cc(OCCC6(N)COC6)ccn45)ncn3)cc2)cn1 [A233]
18 | 8.5 | 70 | < 15 | Cn1cc(-c2ccc(CNc3cc(-c4cnc5cc(OCCOCCO)ccn45)ncn3)cc2)cn1 [A234, 2-[2-(3-{6-[4-(1-methyl-1H-pyrazol-4-yl)-benzylamino]-pyrimidin-4-yl}-imidazo[1,2-a]pyridin-7-yloxy)-ethoxy]-ethanol]
19 | 1.5 | 74 | < 15 | Cc1nc(-c2ccc(CNc3cc(-c4cnc5cc(OCCO)ccn45)ncn3)cc2)co1 [A236, 2-(3-{6-[4-(2-methyl-oxazol-4-yl)-benzylamino]-pyrimidin-4-yl}-imidazo[1,2-a]pyridin-7-yloxy)-ethanol]
